According to patent publication EP1131297B1, “CERTAIN SUBSTITUTED CAPROLACTAMS, PHARMACEUTICAL COMPOSITIONS CONTAINING THEM AND THEIR USE IN TREATING TUMORS” (Novartis AG, priority 1998, dated 2000):
Values after ≈ are worked out from the molar mass of the structure shown. Where two headings read alike, the source gives them in different places.

What was measured:
[1] = system: MDA-MB-435 breast carcinoma; assay: Anchorage Dependent Growth Monolayer Assay (ADGMA), MTS readout; type: cell-based; settings: average ± S.D., 3-day exposure, A490
Description: As indicated above, all of the compounds of formula I, and their corresponding pharmaceutically acceptable acid addition salts, are anti-tumor agents and are, therefore, useful in inhibiting the growth of various lymphomas, sarcomas, carcinomas, myelomas, and leukemia cell lines. […] This assay was adapted from the 60 cell line assay used by the National Cancer Institute (NCI) with the following modifications: 1) a single cell line representative for the important tumor type, viz., MDA-MB-435 breast carcinoma was utilized; 2) a tetrazolium derivative, viz., MTS, was utilized to determine cell density.
The ADGMA compares the number of viable cells following a 3-day exposure to a test compound relative to a number of cells present at the time the test compound was added. […] The absorbance at 490 nm (A490) of the formazan derivative is proportional to the number of viable cells. The IC50 for a test compound is the concentration of compound required to reduce the final cell number to 50% of the final control cell number. If cell proliferation is inhibited, the assay further defines compounds as cytostatic (cell number after 3-day compound incubation >cell number at time of compound addition) or cytotoxic (cell number after 3-day compound incubation <cell number at time of compound addition).
The MDA-MB-435 breast carcinoma line was obtained from the American Type Culture Collection (ATCC) and used between passages 4-20 following thawing. MDA-MB-435 breast carcinoma was maintained and plated in DME/F12 medium containing 10% fetal bovine serum, 15 mM HEPES (pH=7.4), penicillin 100 units/mL, and streptomycin 100 µg/mL.
Cell lines are trypsinized and counted using a Coulter counter to determine plating densities. Cells are then plated in their respective maintenance media (100 µL/well) in 96 well plates at the following densities: MDA-MB-435, 3,000 cells/well. The number of cells plates as determined in preliminary experiments, results in cell densities of 75-90% of confluency by 4 days after plating. Initial cell densities, assayed one day after plating, are roughly 0.15-0.20 absorbance units greater than the media blank. Ninety-six well plates are seeded on day 0 and the test compounds are added on day 1. A control plate is created for each cell line that receives media only in row A and cells in row B. One day following plating, test compounds are added (in a final volume of 100 µL) to the test plates. Control plates receive 10 µL MTS mixture (prepared fresh on day of addition to cell plates at a ratio of 10 µL of a 0.92 mg/mL solution of PMS to a 190 µL of a 2 mg/mL solution of MTS) and 100 µL media. A490 of control plates is read 4h after MTS addition to determine initial cell density values for each cell line. Three days after addition of test compound, 10 µL/well of MTS mixture is added to the test plates and A490 is read 4h later. A490 values for wells containing cells are corrected for media absorbance, then normalized to initial density readings to determine percent net growth. IC50 values are determined from graphs of percent net growth as a function of compound concentration. Percent net growth is calculated as (Cell + Drug A490 - Initial A490/Cell + Drug Vehicle A490 - Initial A490).

[2] = system: MDA-MB-435 tumor xenografts; assay: Human tumor xenograft growth inhibition in athymic nude mouse model; type: in vivo, athymic (nu/nu) mice
Protocol: The histologic tumor type employed was MDA-MB-435 breast carcinoma.
Positive controls are carried out with doxorubicin administered 3 times per week i.v.
Anti-tumor activity was expressed as %T/C (Δ MTV of treated group ö Δ MTV of control group X100).

[3] = 10 µmol/kg i.v., 3X/week for 3 weeks
[4] = 33 µmol/kg i.v., 3X/week for 3 weeks
[5] = Mus musculus, MDA-MB-435, iv, 504 h, 10 µmol/kg i.v., 3X/week for 3 weeks, * = statistically significant (p=<0.05), read-out: %T/C
[6] = Mus musculus, MDA-MB-435, iv, 504 h, 33 µmol/kg i.v., 3X/week for 3 weeks, * = statistically significant (p=<0.05), read-out: %T/C
[7] = Mus musculus, MDA-MB-435, iv, 504 h, read-out: %T/C
[8] = 2 mg/kg i.v., 3X/week for 3 weeks (positive control)

Molecule	IC50 ([1]; Homo sapiens, MDA-MB-435, 72 h)	Dead/Total [2, 3]	Δ MTV [2, 3]	Dead/Total [2, 4]	Δ MTV [2, 4]	response vs control in vivo at 10 µmol/kg [2, 5]	response vs control in vivo at 33 µmol/kg [2, 6]	solubility (Water solubility)	response vs control in vivo at 10 µmol/kg [2, 7]	response vs control in vivo at 33 µmol/kg [2, 7]	Dead/Total [2, 8]	Δ MTV [2, 8]	response vs control in vivo at 2 mg/kg ([2]; Mus musculus, MDA-MB-435, iv, 504 h, 2 mg/kg i.v., 3X/week for 3 weeks (positive control), * = statistically significant (p=<0.05), read-out: %T/C)	IC50 [1]
CO[C@@H](C(=O)N[C@H]1CC[C@@H](OC(=O)C2CCCC2)CNC1=O)[C@H](O)[C@@H](O)[C@H](O)/C=C/C(C)(C)C [Ex. 2, (2R, 3R, 4S, 5R, 6E)-3,4,5-trihydroxy-2-methoxy-8,8-dimethyl-N-[(3S, 6R)-hexahydro-2-oxo-6-(cyclopentylcarbonyl)oxy-2H-azepin-3-yl]non-6-enamide]	115 ± 40 nM	0/8	94 mm^3	0/8	19 mm^3	67%	13%	18 mg/mL (≈ 37.1 mM)	–	–	–	–	–	–
COc1ccc(CC(=O)O[C@@H]2CC[C@H](NC(=O)[C@H](OC)[C@H](O)[C@@H](O)[C@H](O)/C=C/C(C)(C)C)C(=O)NC2)cc1 [Ex. 9, (2R, 3R, 4S, 5R, 6E)-3,4,5-trihydroxy-2-methoxy-8,8-dimethyl-N-[(3S, 6R)-hexahydro-2-oxo-6-(1-oxo-2-[4-methoxyphenyl]ethoxy)-2H-azepin-3-yl]non-6-enamide]	335 ± 141 nM	0/8	107 mm^3	0/8	68 mm^3	76%	48%	–	–	–	–	–	–	–
CCCCCCCCCCc1ccc(C(=O)O[C@@H]2CC[C@H](NC(=O)[C@H](OC)[C@H](O)[C@@H](O)[C@H](O)/C=C/C(C)(C)C)C(=O)NC2)cc1 [Ex. 12, (2R, 3R, 4S, 5R, 6E)-3,4,5-trihydroxy-2-methoxy-8,8-dimethyl-N-[(3S, 6R)-hexahydro-2-oxo-6-([4-n-decylphenyl]carbonyl)oxy-2H-azepin-3-yl]non-6-enamide]	34 ± 46 nM	0/8	78 mm^3	0/8	11 mm^3	–	–	–	52%	7%	–	–	–	–
CO[C@@H](C(=O)N[C@H]1CC[C@@H](OC(=O)CCc2cccnc2)CNC1=O)[C@H](O)[C@@H](O)[C@H](O)/C=C/C(C)(C)C [Ex. 5, (2R, 3R, 4S, 5R, 6E)-3,4,5-trihydroxy-2-methoxy-8,8-dimethyl-N-[(3S, 6R)-hexahydro-2-oxo-6-(1-oxo-3-[3-pyridyl]propoxy)-2H-azepin-3-yl]non-6-enamide]	465 ± 204 nM	0/8	130 mm^3	0/8	62 mm^3	92%	44%	–	–	–	–	–	–	–
CO[C@@H](C(=O)N[C@H]1CC[C@@H](OC(=O)CC2CCCCC2)CNC1=O)[C@H](O)[C@@H](O)[C@H](O)/C=C/C(C)(C)C [Ex. 6, (2R, 3R, 4S, 5R, 6E)-3,4,5-trihydroxy-2-methoxy-8,8-dimethyl-N-[(3S, 6R)-hexahydro-2-oxo-6-(cyclohexylmethylcarbonyl)oxy-2H-azepin-3-yl]non-6-enamide]	65 ± 1 nM	0/8	66 mm^3	0/8	48 mm^3	47%	34%	–	–	–	–	–	–	–
CO[C@@H](C(=O)N[C@H]1CC[C@@H](OC(=O)C2CCCCCC2)CNC1=O)[C@H](O)[C@@H](O)[C@H](O)/C=C/C(C)(C)C [Ex. 3]	32 ± 14 nM	0/8	69 mm^3	0/8	49 mm^3	39%	28%	–	–	–	–	–	–	–
COc1cccc2c1C(=O)c1c(O)c3c(c(O)c1C2=O)C[C@@](O)(C(=O)CO)C[C@@H]3O[C@H]1C[C@H](N)[C@H](O)[C@H](C)O1 [doxorubicin, reference compound]	137 ± 105 nM	–	–	–	–	–	–	–	–	–	0/8	74 mm^3	42%	–
CO[C@@H](C(=O)N[C@H]1CC[C@@H](OC(=O)Cc2ccc(Cl)c(Cl)c2)CNC1=O)[C@H](O)[C@@H](O)[C@H](O)/C=C/C(C)(C)C [Ex. 8, (2R, 3R, 4S, 5R, 6E)-3,4,5-trihydroxy-2-methoxy-8,8-dimethyl-N-[(3S, 6R)-hexahydro-2-oxo-6-(1-oxo-2-[3,4-dichlorophenyl]ethoxy)-2H-azepin-3-yl]non-6-enamide]	175 ± 7 nM	0/8	87 mm^3	0/8	94 mm^3	62%	67%	–	–	–	–	–	–	–
(2R, 3R, 4S, 5R, 6E)-3,4,5-trihydroxy-2-methoxy-8,8-dimethyl-N-[(3S, 6R)-hexahydro-2-oxo-6-(1-oxo-3-[3-indolyl]ethoxy)-2H-azepin-3-yl]non-6-enamide [Ex. 14]	–	–	–	–	–	–	–	–	–	–	–	–	–	1240 ± 200 nM
CO[C@@H](C(=O)N[C@H]1CC[C@@H](OC(=O)/C=C/c2ccccc2)CNC1=O)[C@H](O)[C@@H](O)[C@H](O)/C=C/C(C)(C)C [Ex. 11]	19 ± 5 nM	0/8	135 mm^3	0/8	76 mm^3	–	–	–	76%	43%	–	–	–	–
CCCCCCCCCCOc1ccc(C(=O)O[C@@H]2CC[C@H](NC(=O)[C@H](OC)[C@H](O)[C@@H](O)[C@H](O)/C=C/C(C)(C)C)C(=O)NC2)cc1 [Ex. 10, (2R, 3R, 4S, 5R, 6E)-3,4,5-trihydroxy-2-methoxy-8,8-dimethyl-N-[(3S, 6R)-hexahydro-2-oxo-6-([4-n-decyloxyphenyl]carbonyl)oxy-2H-azepin-3-yl]non-6-enamide]	8 ± 4 nM	0/8	115 mm^3	0/8	4 mm^3	64%	2%	–	–	–	–	–	–	–
CO[C@@H](C(=O)N[C@H]1CC[C@@H](OC(=O)Cc2ccsc2)CNC1=O)[C@H](O)[C@@H](O)[C@H](O)/C=C/C(C)(C)C [Ex. 13, (2R, 3R, 4S, 5R, 6E)-3,4,5-trihydroxy-2-methoxy-8,8-dimethyl-N-[(3S, 6R)-hexahydro-2-oxo-6-(1-oxo-3-[3-thiophenyl]ethoxy)-2H-azepin-3-yl]non-6-enamide]	–	–	–	–	–	–	–	–	–	–	–	–	–	300 nM
CO[C@@H](C(=O)N[C@H]1CC[C@@H](OC(=O)Cc2ccccc2)CNC1=O)[C@H](O)[C@@H](O)[C@H](O)/C=C/C(C)(C)C [Ex. 7, (2R, 3R, 4S, 5R, 6E)-3,4,5-trihydroxy-2-methoxy-8,8-dimethyl-N-[(3S, 6R)-hexahydro-2-oxo-6-(1-oxo-2-phenylethoxy)-2H-azepin-3-yl]non-6-enamide]	262 ± 70 nM	0/8	101 mm^3	0/8	61 mm^3	72%	43%	–	–	–	–	–	–	–
